The text below walks through data of PMC4757823, “μ Opioid receptor: novel antagonists and structural modeling” (Scientific Reports, 2016).

Test [1] has as its target T1, human MOR (Homo sapiens, UniProt P35372).
T1 construct: expressed in transfected cells; host or cells: CHO (Chinese hamster ovary) cells stably expressing human MOR; gift from Dr. Lawrence Toll, SRI International
Description: cAMP accumulation assay (GloSensor) in CHO-hMOR-p22F cells. It is filed as cell-based. The settings on record: for inhibition of the forskolin-stimulated cAMP production: CHO-hMOR-p22F cells, agonist mode. On the procedure: Inhibition of the forskolin-stimulated intracellular cAMP accumulation in CHO cells co-expressing the hMOR and the cAMP biosensor GloSensor-22F (CHO-hMOR-p22F cells) was performed using the Glo-Sensor^TM cAMP assay (Promega), according to the manufacturer’s instructions. Cells were seeded in growth medium into 384-well plates at a density of 5,000 cells in 30 μL per well and incubated overnight. On the day of assay, culture media was removed, and cells were pre-equilibrated for 90 min with 4% v/v of the GloSensor cAMP reagent in reaction medium (20 mM HEPES, 1 × HBSS, pH 7.4) at 37 °C and 5% CO2. […] Forskolin (10 μM) was added to each well, and luminescence was measured after 20 min. All experiments were performed in triplicate and repeated at least three times.
(Changes in cAMP serve as a functional read-out for many G protein-coupled receptors.)

The target of test [2] is T1, human MOR. Description: [35S]GTPγS binding assay in CHO-hMOR cell membranes. The format is biochemical. The settings on record: for stimulation of [35S]GTPγS binding: CHO-hMOR membranes, agonist mode. The protocol: Determination of [^35S]GTPγS binding to CHO-hMOR cell membranes were performed as described previously. Cell membranes (5–10 μg protein), prepared as described for the radioligand MOR binding assay, were incubated in the absence or in the presence of test compound in the assay buffer (20 mM HEPES, 100 mM NaCl, 10 mM MgCl2, pH 7.4) containing [^35S]GTPγS (0.05 nM) and GDP (10 nM) in a total volume of 1.0 mL for 60 min at 25 °C. Nonspecific binding was determined using 10 μM GTPγS, and the basal binding was determined in the absence of test compound. Samples were filtered over glass fiber filters and counted as described for the radioligand binding assays. […] The antagonist equilibrium dissociation constant Ke for 4 was calculated using the equation Ke = [a]/(DR − 1), where “a” is the concentration of antagonist. All experiments were performed in duplicate and repeated at least three times.
(GTPγS is a poorly hydrolysed GTP analogue; its binding reports G protein activation.)

Test [3] deals with T1, human MOR. Description: Radioligand MOR binding assay ([3H]DAMGO competition, CHO-hMOR membranes). The settings on record: for inhibition at 10 µM: read-out: inhibition of [3H]DAMGO binding to the MOR.
For a further test, the target named is μ1 receptors. On the set-up: method as in PMID 8069669. Particulars: lowering radioligand binding; cited from earlier work.
The target of a further test is μ2 receptors. More on the design: method as in PMID 8069669. Particulars: lowering radioligand binding; cited from earlier work.
In the next test the test system is mouse tail-flick test. More on the design: method as in PMID 8069669. The settings on record: cited from earlier work.
Test [4] concerns μ3 opioid receptor subtype. More on the design: method as in PMID 15580165. The settings on record: human monocytes; cited from earlier work.
The test system of the next test is MOR. Particulars: concentration of 100 μM; cited from earlier work.
The subject of test [5] is morphine-induced antinociception in mice. In words: Tail-flick test, antagonism of morphine-induced antinociception. The format is in vivo, mouse.
For test [6] the test system is unchanged. Description: Acetic acid-induced writhing test, antagonism of morphine-induced antinociception. It is filed as in vivo, mouse. The settings on record: s.c. Background: Writhing tests count abdominal constrictions after an irritant is injected.

T1 sequence (P35372 whole entry): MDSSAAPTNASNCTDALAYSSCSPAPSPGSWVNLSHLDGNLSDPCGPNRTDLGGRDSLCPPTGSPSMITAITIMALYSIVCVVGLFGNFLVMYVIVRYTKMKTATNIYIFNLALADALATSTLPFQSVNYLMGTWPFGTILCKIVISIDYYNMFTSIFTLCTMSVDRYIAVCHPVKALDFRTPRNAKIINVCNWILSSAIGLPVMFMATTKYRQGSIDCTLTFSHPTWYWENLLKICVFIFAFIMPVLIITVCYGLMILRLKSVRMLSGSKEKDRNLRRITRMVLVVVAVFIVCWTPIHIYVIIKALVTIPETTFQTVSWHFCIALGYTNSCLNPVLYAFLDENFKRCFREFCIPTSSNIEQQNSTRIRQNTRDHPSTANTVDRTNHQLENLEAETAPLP

Consider `Cc1c(NC(=O)c2ccc(Cl)cc2)cc(-c2ccccc2)n1CCCN1CCOCC1` [Compound 3], for which the “inhibition of the forskolin-stimulated cAMP production” value on human MOR [1] is “not effective”. Also, at human MOR [2], the “stimulation of [35S]GTPγS binding” value is on record as “none of the three ligands produced any increase”. For the same compound, at human MOR [3], the Ki (in general, a measure of affinity in units of concentration, obtained from inhibition or displacement) was 10.7 µM and the inhibition (as a rule, the drop in the measured response relative to a control, in per cent) at 10 µM was at least 50%.
On to `COc1ccc(S(=O)(=O)N2CCCN(c3c(Cl)cncc3Cl)CC2)cc1OC` [Compound 5], for which the “inhibition of the forskolin-stimulated cAMP production” value on human MOR [1] was “not effective”. Moreover, the “stimulation of [35S]GTPγS binding” value on human MOR [2] is listed as “none of the three ligands produced any increase”. Besides, at human MOR [3], affinity was put at a Ki of 7.01 µM and the inhibition at 10 µM is at least 50%.
As for `COc1ccc(CC2c3cc(OC)c(OC)cc3CCN2C)cc1OC` (stereo not drawn) [Laudanosine], the Ki on μ1 receptors is 2.7 µM; on μ2 receptors, 13 µM. Besides, the antinociceptive effects result in the test on mouse tail-flick test is on record as “exert antinociceptive effects”.
For the compound `COc1ccc(C[C@H]2c3cc(O)c(OC)cc3CCN2C)cc1O` [reticuline], in test [4], the “binding to the μ3 opioid receptor subtype” value is given as “no binding”. Further, the “% of morphine effects” value in the test with MOR is recorded as “ca. 16%”.
Regarding `COc1cc2c(cc1OC)C(C)N(Cc1cc(C)c(O)c(C)c1)CC2` (stereo not drawn) [Compound 4], the “inhibition of the forskolin-stimulated cAMP production” value at human MOR [1] was “not effective”. In addition, the “rightward shift in the concentration-response for DAMGO” value on human MOR [1] (DAMGO inhibition of forskolin-stimulated cAMP accumulation) is 3 fold. Moreover, on human MOR [1] (read-out: Ke), the Kb came out at 8.03 ± 0.38 µM. Besides, on human MOR [2], the “stimulation of [35S]GTPγS binding” value is “none of the three ligands produced any increase”. Besides, the Kb at human MOR [2] (read-out: antagonist equilibrium constant (Ke)) is 1.02 ± 0.25 µM. At human MOR [3], the affinity corresponds to a Ki of 1.11 µM and the inhibition at 10 µM is at least 50%. Further, the “blockade of morphine's analgesic effect against thermal-induced nociception” value in [5] (20 mg/kg s.c. pretreatment, 30 min prior to s.c. morphine) is recorded as “complete blockade”. Besides, the “effect on pain behavior when administered alone (thermal sensitivity)” value in test [5] (s.c., alone, vs. vehicle) is given as “did not affect pain behavior”. The “effect on pain behavior when administered alone (chemical sensitivity)” value in test [6] (alone, vs. vehicle) was “did not affect pain behavior”. The “reversal of morphine analgesia in the writhing test” value in [6] (given 30 min prior to s.c. morphine) was “significant and dose-dependent reversal”.
